Measurements as given in the supplement of paper PMC11451515.

What was measured:
Assay in all cases: AUC of viability dose-response curve (% viability x log10 dose units); higher = less sensitive
Conditions in all cases: 48 h
NOMO1 = test system: NOMO1
How it was run: (§1)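 Area under the curve was integrated by trapezoidal rule from a log-logistic fit of normalised viability, with curves exceeding full viability scaled and quality-control failures removed. The fit had four parameters over log10 doses. Viability came from CellTiter-Glo One luminescence, normalised per plate to DMSO and cell-free wells, after leukemia cells adapted to each medium (500 or 1000 cells/well, 1536-well plates) were exposed to library compounds in DMSO for 48 h at 37°C. The 11 threefold doses ran from 47 μM to 0.79 nM.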

P12-Ichikawa = test system: P12-Ichikawa
How it was run: as §1

SEM cells = test system: SEM cells
How it was run: as §1

[1] = RPMI 5 mM glucose + 10% dialyzed FBS

| SMILES | AUC of viability dose-response curve (NOMO1; HPLM + 10% dialyzed FBS) | AUC of viability dose-response curve (NOMO1; RPMI 5 mM glucose + 10% FBS) | AUC of viability dose-response curve (NOMO1; [1]) | AUC of viability dose-response curve (P12-Ichikawa; HPLM + 10% dialyzed FBS) | AUC of viability dose-response curve (P12-Ichikawa; RPMI 5 mM glucose + 10% FBS) | AUC of viability dose-response curve (P12-Ichikawa; [1]) | AUC of viability dose-response curve (SEM cells; HPLM + 10% dialyzed FBS) | AUC of viability dose-response curve (SEM cells; RPMI 5 mM glucose + 10% FBS) | AUC of viability dose-response curve (SEM cells; [1]) |
| --- | --- | --- | --- | --- | --- | --- | --- | --- | --- |
| OCc1ccc(-c2ccc(-c3ccc(CO)s3)o2)s1 | 437 | 432 | 428 | 429 | 429 | 415 | 450 | 386 | 453 |
| C[C@]12CCC\3=C\4CCC(=O)\C=C4CC[C@H]3[C@@H]1CC[C@@]2(O)CC#N | 436 | 468 | 454 | 473 | 466 | 468 | 437 | 445 | 451 |
| CC(NCCc1ccc(O)cc1)C(O)c1ccc(O)cc1 (stereo unspecified) | 459 | 446 | 451 | 465 | 469 | 460 | 412 | 452 | 413 |
| OCCn1cc(-c2cnc3nnn(Cc4ccc5ncccc5c4)c3n2)cn1 | 440 | 471 | 456 | 457 | 455 | 459 | 430 | 389 | 430 |
| COc1cccc2c1[C@]13CCN(CC4CC4)[C@H](C2)[C@]1(OC)CCC(=O)C3 | 469 | 459 | 473 | 451 | 436 | 446 | 422 | 416 | 421 |
| CCN1CCCC1CNC(=O)c1cc([S+](N)(=O)[O-])ccc1OC (stereo unspecified) | 467 | 470 | 455 | 476 | 467 | 469 | 453 | 460 | 470 |
| CCOC(=O)\C1=C\[C@@H](OC(CC)CC)[C@H](NC(C)=O)[C@@H](N)C1 | 440 | 450 | 454 | 463 | 460 | 419 | 416 | 432 | 414 |
| OC1=CC2=C(C(=C1)O)C(=O)\C(=C(/O2)C3=CC(=C(O)C=C3)O)O | 459 | 465 | 469 | 469 | 471 | 469 | 454 | 470 | 454 |
| COC(=O)\C1=C\CCN(C)C1 | 473 | 448 | 466 | 446 | 470 | 468 | 473 | 473 | 477 |
| CCN1CCN(C(=O)Cc2ccc(Nc3ncc(F)c(Nc4ccc(C(=O)Nc5ccccc5Cl)cc4)n3)cc2)CC1 | 420 | 430 | 420 | 405 | 418 | 413 | 402 | 383 | 386 |
| OC[C@H]1O[C@@H](Oc2cc(O)cc(/C=C/c3ccc(O)cc3)c2)[C@H](O)[C@@H](O)[C@@H]1O | 397 | 426 | 416 | 449 | 465 | 473 | 451 | 433 | 429 |
| CCOc1cc(CC(=O)N[C@@H](CC(C)C)c2ccccc2N2CCCCC2)ccc1C(=O)O | 327 | 310 | 337 | 365 | 373 | 387 | 459 | 432 | 436 |
| COc1cc(C)c(Sc2cnc(NC(=O)c3ccc(CNC(C)C(C)C)cc3)s2)cc1C(=O)N1CCN(C(C)=O)CC1 (stereo unspecified) | 430 | 460 | 445 | 448 | 418 | 443 | 386 | 436 | 425 |
| CC(C)(C)[C@H](NC(=O)c1ccc(N)c(Cl)c1)C(=O)N1CCC[C@H]1C(=O)N[C@H](C#N)CC(=O)O | 359 | 343 | 354 | 377 | 387 | 419 | 429 | 470 | 451 |
| Nc1ncnc2c1c(-c1cccc(OCc3ccccc3)c1)cn2C1CC(CN2CCCC2)C1 (stereo unspecified) | 411 | 441 | 423 | 463 | 466 | 465 | 388 | 414 | 405 |
| COc1cc(C(=O)NS(=O)(=O)c2ccccc2C)ccc1Cc1cn(C)c2ccc(NC(=O)OC3CCCC3)cc12 | 371 | 378 | 384 | 411 | 380 | 383 | 323 | 338 | 319 |
| OC[C@H]1O[C@@H]2[C@@H](OC\3=N\C(=N)\C=C/[N@@]23)[C@@H]1O | 348 | 374 | 344 | 248 | 241 | 251 | 277 | 264 | 223 |
| C[C@H]1COC/2=C1/C(=O)C(=O)C3=C4CCCC(C)(C)C4=CC=C23 | 447 | 469 | 448 | 468 | 466 | 473 | 434 | 363 | 400 |
| CCOC(=O)/C=C/[C@H](C[C@@H]1CCNC1=O)NC(=O)[C@@H](CC(=O)[C@@H](NC(=O)c1cc(C)on1)C(C)C)Cc1ccc(F)cc1 | 471 | 469 | 440 | 466 | 459 | 450 | 452 | 463 | 454 |
